Patent US11957684B2, “Treatment of heavy menstrual bleeding associated with uterine fibroids” (Sumitomo Pharma Switzerland GmbH, priority 2016, dated 2024)

Test system: heavy menstrual bleeding associated with uterine fibroids
Assay: Example 5A 12-week placebo-controlled study in uterine fibroids: efficacy (PBAC, volumes, NRS, UFS-QOL, anemia parameters)
Format: in vivo, human
Description: Study participants were Japanese women with HMB (heavy menstrual bleeding) associated with UF (uterine fibroids).
Only the largest myomas among those measurable at Visit 1 were measured throughout the study.
During the period between Visit 2 and 3, in which subjects must have experienced at least 1 regular menstrual cycle, the baseline values concerning efficacy evaluation, including PBAC scores and pain symptoms, were collected. The baseline PBAC score is the total PBAC score for the entire menstrual cycle immediately before Visit 3.
Visit 3 was on Days 1 to 5 of the second menstrual cycle after Visit 1. From Visits 3 to 7, subjects tried to visit the clinics in a fasted state and before taking the study drug.
When a dose was missed before breakfast, subjects took the study drug 30 minutes before either dinner or lunch on the same day.
Pain symptoms, other clinical symptoms and QOL were measured as secondary endpoints. Pain symptoms were evaluated in the patient diary from Visit 1 to the day before Visit 7 using the NRS score. The UFS-QOL score was used to evaluate other clinical symptoms and the QOL of subjects. Subjects completed the UFS-QOL questionnaire at Visits 3, 5, 6 and 7.
In particular, FIGS. 50-52 tabulate hemoglobin concentrations; FIG. 53 tabulates hematocrit percentages; FIG. 54 tabulates serum iron concentrations; and FIG. 55 tabulates ferritin concentrations.
PBAC scores were used in Example 5A, and provide an estimate of menstrual blood loss volume. The PBAC score was evaluated by having subjects record details related to menstrual blood loss on a PBAC score sheet distributed by the sponsor during the treatment period. […] These items represent the level of stained sanitary materials over the course of a menstrual cycle, with a total score ranging from 0 (none) to infinity. Higher scores indicate heavier blood loss. The PBAC score sheet also allows subjects to indicate: whether they experienced bleeding between periods that required sanitary protection; whether they passed clots, and if so, approximate size of the clots; whether they experienced episodes of flooding; and whether they required double protection (used both a pad and tampon simultaneously). As used in the PBAC score sheet of Example 5A, flooding is defined as overflowing, or staining, of clothing or underwear due to menstrual bleeding.
The total PBAC score was derived by summing points for each of the above.
All myoma and uterine volumes referred to herein were evaluated using transvaginal ultrasound. Specifically, the myoma volumes were calculated using the following formula: D1×D2×D3×π/6, where D1 is the longest diameter of the myoma; D2 is the longest diameter of the myoma at an angle perpendicular to D1; and D3 is the diameter of the myoma crossing the intersection of D1 and D2 perpendicular to the D1/D2 plane.

[1] = 10 mg, Week 6-12, listed as Relugolix
[2] = 10 mg, Week 12, listed as Relugolix
[3] = 20 mg, Week 6-12, listed as Relugolix

CONC(=O)Nc1ccc(-c2sc3c(c2CN(C)C)c(=O)n(-c2ccc(OC)nn2)c(=O)n3Cc2c(F)cccc2F)cc1 [Compound 1, N-(4-(1-(2,6-difluorobenzyl)-5-((dimethylamino)methyl)-3-(6-methoxy-3-pyridazinyl)-2,4-dioxo-1,2,3,4-tetrahydrothieno[2,3-d]pyrimidin-6-yl)phenyl)-N′-methoxyurea]
Amenorrhea (PBAC from Week 6 to 12 was 0), number of patients (10 mg (n = 48)): 8 n
complete response rate, uterine fibroids (10 mg or 20 mg): 21-44%
myoma volume (10 mg, Week 2): 116.68±152.833 cm^3
uterine volume (10 mg, Week 2): 305.07±265.810 cm^3
NRS score (10 mg, Week 2-6): 0.67±1.228
subjects who achieved amenorrhea (PBAC = 0) (10 mg, Week 2-6): 12.5%
subjects with total PBAC score <10 (10 mg, Week 2-6): 16.7%
NRS score (10 mg, Week 2-12): 0.63±1.217
subjects who achieved amenorrhea (PBAC = 0) (10 mg, Week 2-12): 10.4%
subjects with total PBAC score <10 (10 mg, Week 2-12): 12.5%
Fe value (serum iron) (10 mg, Week 4): 72.8 ± 40.58 µg/dL
Ht value (10 mg, Week 4): 39.48±3.327%
UFS-QOL HRQL total score (10 mg, Week 4): 11.28±10.342
UFS-QOL symptom severity score (10 mg, Week 4): 23.78±14.736
ferritin value (10 mg, Week 4): 14.71 ± 16.372 ng/mL
myoma volume (10 mg, Week 4): 90.89±108.009 cm^3
uterine volume (10 mg, Week 4): 258.10±171.703 cm^3
change of total PBAC score from baseline (10 mg, Week 6-12): −1.4±222.94
subjects who achieved amenorrhea (PBAC = 0) (10 mg, Week 6-12): 16.7%
subjects with total PBAC score <10 (10 mg, Week 6-12): 20.8%
total PBAC score (mean±SD) (10 mg, Week 6-12): 268.0±276.37
NRS score [1]: 0.6
subjects who achieved amenorrhea (PBAC = 0) [1]: (16.7) %
Fe value (serum iron) (10 mg, Week 8): 67.3 ± 34.74 µg/dL
Ht value (10 mg, Week 8): 39.43±3.154%
UFS-QOL HRQL total score (10 mg, Week 8): 13.39±13.179
UFS-QOL symptom severity score (10 mg, Week 8): 24.55±16.105
myoma volume (10 mg, Week 8): 97.47±117.339 cm^3
uterine volume (10 mg, Week 8): 259.64±190.452 cm^3
Fe value (serum iron) (10 mg, Week 12): 75.3 ± 46.94 µg/dL
Ht value (10 mg, Week 12): 39.37±3.639%
UFS-QOL HRQL total score (10 mg, Week 12): 13.01±13.270
UFS-QOL HRQL total, change from baseline (10 mg, Week 12): −1.61±10.586
UFS-QOL symptom severity score (10 mg, Week 12): 23.28±16.053
UFS-QOL symptom severity, change from baseline (10 mg, Week 12): −6.51±18.122
change of Fe value from baseline (10 mg, Week 12): 11.0 ± 42.94 µg/dL
change of Hb from baseline (10 mg, Week 12): 0.35 ± 1.055 g/dL
change of Ht value from baseline (10 mg, Week 12): 0.77±2.792%
change of ferritin value from baseline (10 mg, Week 12): -2.56 ± 6.833 ng/mL
ferritin value (10 mg, Week 12): 10.81 ± 9.489 ng/mL
myoma volume (10 mg, Week 12): 97.09±126.578 cm^3
percent change of myoma volume from baseline (10 mg, Week 12): −22.63±29.539%
percent change of uterine volume from baseline (10 mg, Week 12): −12.10±29.936%
uterine volume (10 mg, Week 12): 252.93±175.064 cm^3
UFS-QOL HRQL total, change from baseline [2]: −2
UFS-QOL symptom severity, change from baseline [2]: −7
change of Hb from baseline [2]: 0.3 g/dL
percent change of myoma volume from baseline [2]: −23%
percent change of uterine volume from baseline [2]: −12%
Amenorrhea (PBAC from Week 6 to 12 was 0), number of patients (20 mg (n = 56)): 21 n
myoma volume (20 mg, Week 2): 98.63±112.118 cm^3
uterine volume (20 mg, Week 2): 294.81±269.990 cm^3
NRS score (20 mg, Week 2-6): 0.48±0.970
subjects who achieved amenorrhea (PBAC = 0) (20 mg, Week 2-6): 33.9%
subjects with total PBAC score <10 (20 mg, Week 2-6): 42.9%
NRS score (20 mg, Week 2-12): 0.44±0.855
subjects who achieved amenorrhea (PBAC = 0) (20 mg, Week 2-12): 28.6%
subjects with total PBAC score <10 (20 mg, Week 2-12): 32.1%
Fe value (serum iron) (20 mg, Week 4): 77.4 ± 49.74 µg/dL
Ht value (20 mg, Week 4): 40.06±3.773%
UFS-QOL HRQL total score (20 mg, Week 4): 11.10±13.829
UFS-QOL symptom severity score (20 mg, Week 4): 23.12±14.327
ferritin value (20 mg, Week 4): 14.77 ± 11.536 ng/mL
myoma volume (20 mg, Week 4): 101.51±132.419 cm^3
uterine volume (20 mg, Week 4): 291.73±327.844 cm^3
NRS score (20 mg, Week 6-12): 0.35±0.618
change of total PBAC score from baseline (20 mg, Week 6-12): −153.0±194.83
subjects who achieved amenorrhea (PBAC = 0) (20 mg, Week 6-12): 38.2%
subjects with total PBAC score <10 (20 mg, Week 6-12): 43.6%
NRS score [3]: 0.4
subjects who achieved amenorrhea (PBAC = 0) [3]: (38.2) %
Fe value (serum iron) (20 mg, Week 8): 84.2 ± 49.42 µg/dL
Ht value (20 mg, Week 8): 40.39±3.389%
